Test results from PubChem BioAssay AID1345 (Sanford-Burnham Center for Chemical Genomics, 2008).
The source made the active and inactive calls.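 How the source made its calls: active means survival above 70% of the untreated level at 25 µM; inactive means the rest.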

System: CSM14.1 cells, VP16-induced death, ATP luminescence, 48 h
Assay: protection against VP16 DNA-damage killing – cell-based, undifferentiated CSM14.1, ATP content, selectivity assay for ER stress death inhibitor project, late-stage follow-up (AID 1345)
Details: at 25 µM; active compounds read high

Compound	viability
COc1ccc(C2CC(=O)C3=C(C2)Nc2ccccc2NC3c2cc(C)ccc2C)cc1 (stereo unspecified)	56% (inactive)
COc1ccc(C2CC(=O)C3=C(C2)Nc2ccccc2NC3c2cccc(C(F)(F)F)c2)cc1OC (stereo unspecified)	49% (inactive)
COc1ccc(C2CC(=O)C3=C(C2)Nc2ccccc2NC3c2cccc(Oc3ccccc3)c2)cc1OC (stereo unspecified)	54% (inactive)
COc1ccc(C2CC(=O)C3=C(C2)Nc2ccccc2NC3c2cccc(Br)c2)cc1OC (stereo unspecified)	56% (inactive)
O=C1CC(c2ccccc2)CC2=C1C(c1c(F)cccc1Cl)Nc1ccccc1N2 (stereo unspecified)	50% (inactive)
COc1ccc(C2CC(=O)C3=C(C2)Nc2ccccc2NC3c2ccccc2C(F)(F)F)cc1OC (stereo unspecified)	50% (inactive)
CCOc1cc(C2Nc3ccccc3NC3=C2C(=O)CC(c2ccc(OC)cc2)C3)cc(Cl)c1O (stereo unspecified)	42% (inactive)
CSc1ccc(C2Nc3ccccc3NC3=C2C(=O)CC(c2ccccc2)C3)cc1 (stereo unspecified)	52% (inactive)
CCCOc1ccc(C2Nc3ccccc3NC3=C2C(=O)CC(c2ccc(OC)c(OC)c2)C3)cc1 (stereo unspecified)	57% (inactive)
CCOc1cccc(C2Nc3ccccc3NC3=C2C(=O)CC(c2ccc(OC)cc2)C3)c1 (stereo unspecified)	50% (inactive)
CC1(C)CC(=O)C2=C(C1)Nc1ccccc1NC2c1ccc(-c2ccccc2)cc1 (stereo unspecified)	53% (inactive)
